Source: article PMC7226027, “Phosphonic Acid Analogs of Fluorophenylalanines as Inhibitors of Human and Porcine Aminopeptidases N: Validation of the Importance of the Substitution of the Aromatic Ring” (Biomolecules, 2020)
Like-named read-outs stand apart in the source and are kept apart here.

How the values were obtained:
Type in all cases: biochemical
[1] = target: T1, hAPN (recombinant human alanine aminopeptidase, EC 3.4.11.2) (Homo sapiens, UniProt P15144); experiment: fluorogenic assay, Ala-AMC hydrolysis; Ki by Lineweaver-Burk, Dixon, Cheng-Prusoff
T1 construct: gene ANPEP; commercial recombinant enzyme (R&D Systems), lyophilized powder
T1 sequence (P15144 33-967 limits assumed): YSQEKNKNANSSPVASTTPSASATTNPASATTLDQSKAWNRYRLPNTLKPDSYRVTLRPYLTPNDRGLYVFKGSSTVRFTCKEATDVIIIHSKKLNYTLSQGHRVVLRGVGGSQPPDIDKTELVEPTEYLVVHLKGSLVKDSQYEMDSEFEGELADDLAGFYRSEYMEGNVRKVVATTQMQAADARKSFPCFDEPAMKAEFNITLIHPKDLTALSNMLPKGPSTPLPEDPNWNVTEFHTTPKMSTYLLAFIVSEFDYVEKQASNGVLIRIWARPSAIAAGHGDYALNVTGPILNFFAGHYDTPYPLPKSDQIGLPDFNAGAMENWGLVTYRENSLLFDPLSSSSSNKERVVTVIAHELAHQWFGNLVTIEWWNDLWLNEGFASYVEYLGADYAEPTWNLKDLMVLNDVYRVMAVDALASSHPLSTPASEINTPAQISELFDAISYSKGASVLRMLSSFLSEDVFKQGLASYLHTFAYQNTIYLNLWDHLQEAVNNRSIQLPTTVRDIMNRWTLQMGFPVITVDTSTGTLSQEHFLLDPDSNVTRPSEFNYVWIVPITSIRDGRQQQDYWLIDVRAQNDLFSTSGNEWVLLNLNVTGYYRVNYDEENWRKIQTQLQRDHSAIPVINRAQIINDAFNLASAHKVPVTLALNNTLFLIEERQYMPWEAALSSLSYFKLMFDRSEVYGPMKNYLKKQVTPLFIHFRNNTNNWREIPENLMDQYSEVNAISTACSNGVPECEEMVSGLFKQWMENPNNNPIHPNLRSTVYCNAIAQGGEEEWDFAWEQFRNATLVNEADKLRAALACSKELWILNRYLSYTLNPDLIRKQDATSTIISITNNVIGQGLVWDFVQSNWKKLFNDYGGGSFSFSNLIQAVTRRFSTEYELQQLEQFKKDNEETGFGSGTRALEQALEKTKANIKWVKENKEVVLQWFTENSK
Text: fluorogenic assay, Ala-AMC hydrolysis; Ki by Lineweaver-Burk, Dixon, Cheng-Prusoff on hAPN (recombinant human alanine aminopeptidase, EC 3.4.11.2)

[2] = target: T2, pAPN (porcine kidney alanine aminopeptidase, EC 3.4.11.2) (Sus scrofa, UniProt P15145); experiment: as above; conditions: for pAPN Ki (μM): unreliable (value above highest stated concentration, 1 mM)
T2 construct: gene ANPEP; commercial enzyme from porcine kidney (Sigma Aldrich), native purification, lyophilized powder
T2 sequence (P15145 2-963): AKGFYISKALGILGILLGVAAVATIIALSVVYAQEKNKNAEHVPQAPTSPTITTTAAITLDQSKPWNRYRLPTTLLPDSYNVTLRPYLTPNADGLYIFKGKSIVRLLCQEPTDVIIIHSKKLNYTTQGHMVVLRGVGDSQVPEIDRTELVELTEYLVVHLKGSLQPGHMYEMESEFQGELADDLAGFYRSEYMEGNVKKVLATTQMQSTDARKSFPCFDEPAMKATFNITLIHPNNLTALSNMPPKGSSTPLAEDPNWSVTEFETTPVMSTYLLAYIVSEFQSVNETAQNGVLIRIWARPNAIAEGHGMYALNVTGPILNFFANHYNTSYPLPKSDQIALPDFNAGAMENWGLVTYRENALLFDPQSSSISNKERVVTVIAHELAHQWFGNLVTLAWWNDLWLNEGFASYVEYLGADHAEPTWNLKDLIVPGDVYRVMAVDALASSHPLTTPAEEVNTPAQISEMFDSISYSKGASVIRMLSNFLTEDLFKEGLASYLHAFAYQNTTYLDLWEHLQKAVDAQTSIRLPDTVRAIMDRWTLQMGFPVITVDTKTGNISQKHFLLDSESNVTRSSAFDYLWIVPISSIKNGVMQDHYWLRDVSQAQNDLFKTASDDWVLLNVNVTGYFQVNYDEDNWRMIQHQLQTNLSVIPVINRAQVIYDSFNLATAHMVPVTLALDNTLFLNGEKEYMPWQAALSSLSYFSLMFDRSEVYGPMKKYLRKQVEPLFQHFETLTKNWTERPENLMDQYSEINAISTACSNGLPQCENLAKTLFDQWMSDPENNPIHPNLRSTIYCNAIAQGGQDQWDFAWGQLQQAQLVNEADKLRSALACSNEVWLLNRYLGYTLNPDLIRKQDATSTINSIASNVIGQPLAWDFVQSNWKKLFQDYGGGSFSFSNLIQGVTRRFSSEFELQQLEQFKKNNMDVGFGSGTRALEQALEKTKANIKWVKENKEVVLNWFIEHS
Text: fluorogenic assay, Ala-AMC hydrolysis; Ki by Lineweaver-Burk, Dixon, Cheng-Prusoff on pAPN (porcine kidney alanine aminopeptidase, EC 3.4.11.2)

[3] = target: T2, pAPN (porcine kidney alanine aminopeptidase, EC 3.4.11.2); experiment: fluorogenic assay (AMC release); conditions: 50 mM Tris-HCl pH 7.20
[4] = target: T1, hAPN (recombinant human alanine aminopeptidase, EC 3.4.11.2); experiment: fluorogenic assay (AMC release); conditions: 50 mM Tris-HCl pH 7.00
[5] = racemate (hydrochloride), 80 µM Ala-AMC, 50 mM Tris-HCl pH 7.20, 37 °C, 0.66 nM enzyme, 30 min enzyme preincubation in buffer
[6] = read-out: Inactive (no inhibition up to 1 mM)
[7] = racemate (hydrochloride), 80 µM Ala-AMC, 50 mM Tris-HCl pH 7.20, 37 °C

Row | Compound | Ki ([1]; read-out: hAPN Ki) | Ki [2] | other results
1 | NC(Cc1c(F)cc(F)cc1F)P(=O)(O)O (racemic) [1k, 1-Amino-2-(2,4,6-trifluorophenyl)ethylphosphonic Acid] | 225 ± 47 µM | 969 ± 158 µM | 
2 | NC(Cc1ccc(F)cc1)P(=O)(O)O (racemic) [1d, 1-Amino-2-(4-fluorophenyl)ethylphosphonic Acid] |  | 41.4 ± 2.5 µM | Ki [1]: 4.86 ± 1.18 µM
3 | NC(CC(F)(F)F)P(=O)(O)O (racemic) [compound 8, (1-Amino-3,3,3-trifluoropropyl)phosphonic acid] |  | 755 ± 230 µM | Ki [1]: 84.7 ± 15.8 µM
4 | NC(Cc1cc(F)c(F)c(F)c1)P(=O)(O)O (racemic) [1l, 1-Amino-2-(3,4,5-trifluorophenyl)ethylphosphonic Acid] | 0.793 ± 0.138 µM | 7.1 ± 0.93 µM | 
5 | NC(Cc1ccccc1F)P(=O)(O)O (racemic) [1b, 1-Amino-2-(2-fluorophenyl)ethylphosphonic Acid] |  | 256 ± 19 µM | Ki [1]: 18.1 ± 3.7 µM
6 | NC(Cc1ccccc1)P(=O)(O)O (stereo not drawn) [1a, 1-Amino-2-phenylethylphosphonic Acid] |  |  | Ki ([1]; racemate (hydrochloride), 50 µM Ala-AMC, 50 mM Tris-HCl pH 7.00, 37 °C, 0.66 nM enzyme, 30 min enzyme preincubation in buffer, read-out: hAPN Ki): 15.5 ± 1.7 µM; Ki [2, 5]: 73.3 ± 7.6 µM
7 | NC(Cc1cccc(F)c1)P(=O)(O)O (racemic) [1c, 1-Amino-2-(3-fluorophenyl)ethylphosphonic Acid] |  | 26.4 ± 2 µM | Ki [1]: 3.39 ± 0.71 µM
8 | NC(Cc1cc(F)cc(F)c1)P(=O)(O)O (racemic) [1i, 1-Amino-2-(3,5-difluorophenyl)ethylphosphonic Acid] | 0.529 ± 0.088 µM | 8.09 ± 1.1 µM | 
9 | NC(Cc1ccc(Cl)c(F)c1)P(=O)(O)O (racemic) [1s, 1-Amino-2-(4-chloro-3-fluorophenyl)ethylphosphonic Acid] | 1.01 ± 0.16 µM | 14.8 ± 0.9 µM | 
10 | NC(Cc1ccc(F)c(Cl)c1)P(=O)(O)O (racemic) [1t, 1-Amino-2-(3-chloro-4-fluorophenyl)ethylphosphonic Acid] | 0.542 ± 0.152 µM | 6.93 ± 0.78 µM | 
11 | NC(Cc1ccccc1C(F)(F)F)P(=O)(O)O (racemic) [1v, 1-Amino-2-(2-trifluoromethylphenyl)ethylphosphonic Acid] |  |  | Ki [1, 6]: > 1000 µM; pAPN Ki (μM) [2, 7]: 2335 ± 617 µM
12 | NC(Cc1c(F)c(F)c(F)c(F)c1F)P(=O)(O)O (racemic) [1m, 1-Amino-2-(2,3,4,5,6-pentafluorophenyl)ethylphosphonic Acid] | 139 ± 71 µM | 808 ± 132 µM | 
13 | NC(Cc1cc(F)ccc1C(F)(F)F)P(=O)(O)O (racemic) [1y, 1-Amino-2-(5-fluoro-2-trifluoromethylphenyl)ethylphosphonic Acid] |  |  | Ki [1, 6]: > 1000 µM; Inactive (no inhibition up to 1 mM) [2, 5]: > 1 mM
14 | Cc1cc(=O)oc2cc(NC(=O)[C@H](C)N)ccc12 [Ala-AMC, L-alanine-4-methylcoumaryl-7-amide] |  |  | Km [3]: 90 µM; Km [4]: 73 µM

Second part, led by results:

Row | Ki ([1]; read-out: hAPN Ki) | Ki [2] | Compound | other results
15 | 24.9 ± 3 µM | 257 ± 27 µM | NC(Cc1ccc(C(F)(F)F)cc1)P(=O)(O)O (racemic) [1x, 1-Amino-2-(4-trifluoromethylphenyl)ethylphosphonic Acid] | 
16 | 327 ± 98 µM | 725 ± 121 µM | NC(Cc1c(F)cccc1F)P(=O)(O)O (racemic) [1g, 1-Amino-2-(2,6-difluorophenyl)ethylphosphonic Acid] | 
17 | 4.3 ± 0.44 µM | 47.2 ± 1.4 µM | NC(Cc1cc(Cl)ccc1F)P(=O)(O)O (racemic) [1p, 1-Amino-2-(5-chloro-2-fluorophenyl)ethylphosphonic Acid] | 
18 | 29.1 ± 10.3 µM | 106 ± 12 µM | NC(Cc1ccc(F)cc1Cl)P(=O)(O)O (racemic) [1u, 1-Amino-2-(2-chloro-4-fluorophenyl)ethylphosphonic Acid] | 
19 | 1.71 ± 0.52 µM | 15.7 ± 2.5 µM | NC(Cc1ccc(F)c(F)c1)P(=O)(O)O (racemic) [1h, 1-Amino-2-(3,4-difluorophenyl)ethylphosphonic Acid] | 
20 | 15 ± 2.2 µM | 78.5 ± 3.9 µM | NC(Cc1cc(F)c(F)cc1F)P(=O)(O)O (racemic) [1j, 1-Amino-2-(2,4,5-trifluorophenyl)ethylphosphonic Acid] | 
21 | 13.5 ± 2.7 µM | 95.6 ± 9.6 µM | NC(Cc1ccc(F)cc1F)P(=O)(O)O (racemic) [1e, 1-Amino-2-(2,4-difluorophenyl)ethylphosphonic Acid] | 
22 | 18.5 ± 7.1 µM | 85.1 ± 9.1 µM | NC(Cc1cccc(Cl)c1F)P(=O)(O)O (racemic) [1n, 1-Amino-2-(3-chloro-2-fluorophenyl)ethylphosphonic Acid] | 
23 | 25.9 ± 5 µM | 86.3 ± 8.2 µM | NC(Cc1cc(F)ccc1F)P(=O)(O)O (racemic) [1f, 1-Amino-2-(2,5-difluorophenyl)ethylphosphonic Acid] | 
24 | 3.55 ± 0.43 µM | 67.7 ± 5.6 µM | NC(Cc1ccc(F)c(C(F)(F)F)c1)P(=O)(O)O (racemic) [1z, 1-Amino-2-(4-fluoro-3-trifluoromethylphenyl)ethylphosphonic Acid] | 
25 | 17.8 ± 2.09 µM | 160 ± 11 µM | NC(Cc1ccc(Cl)cc1F)P(=O)(O)O (racemic) [1o, 1-Amino-2-(4-chloro-2-fluorophenyl)ethylphosphonic Acid] | 
26 | 360 ± 125 µM |  | NC(Cc1c(F)cccc1Cl)P(=O)(O)O (racemic) [1r, 1-Amino-2-(2-chloro-6-fluorophenyl)ethylphosphonic Acid] | pAPN Ki (μM) [2, 7]: 2557 ± 729 µM
27 | 2.53 ± 0.4 µM | 66 ± 7.3 µM | NC(Cc1cccc(C(F)(F)F)c1)P(=O)(O)O (racemic) [1w, 1-Amino-2-(3-trifluoromethylphenyl)ethylphosphonic Acid] | 
